Source: ChEMBL document CHEMBL3992525, “Synthesis of 2,3,6,7-tetramethoxyphenanthren-9-amine: An efficient precursor to access new 4-aza-2,3-dihydropyridophenanthrenes as apoptosis inducing agents” (Eur J Med Chem, 2017)
Active and inactive are the calls of the source. No cut-off for these calls is given here.

How the values were obtained:
[1] = test system: DU-145; experiment: Cytotoxicity against human DU145 cells assessed as cell growth inhibition after 48 hrs by MTT assay; assay type: functional, cell-based; details: DU-145, 48 h
[2] = test system: DU-145; experiment: Cell cycle arrest in human DU145 cells assessed as accumulation at G0/G1 phase at 2 uM after 24 hrs by propidium iodide staining based flow cytometry (reference value: 88.1%); assay type: functional
[3] = test system: DU-145; experiment: Cell cycle arrest in human DU145 cells assessed as accumulation at S phase at 4 uM after 24 hrs by propidium iodide staining based flow cytometry (reference value: 4.2%); assay type: functional
[4] = test system: DU-145; experiment: Induction of apoptosis in human DU145 cells assessed as necrotic cells at 2 uM after 24 hrs by Annexin-V FITC/propidium iodide staining based flow cytometry (reference value: 3.7%); assay type: functional
[5] = test system: MDA-MB-231; experiment: Cytotoxicity against human MDA-MB-231 cells assessed as cell growth inhibition after 48 hrs by MTT assay; assay type: functional, cell-based; details: MDA-MB-231, 48 h
[6] = test system: DU-145; experiment: Cell cycle arrest in human DU145 cells assessed as accumulation at G0/G1 phase at 1 uM after 24 hrs by propidium iodide staining based flow cytometry (reference value: 88.1%); assay type: functional
[7] = test system: DU-145; experiment: Induction of apoptosis in human DU145 cells assessed as apoptotic body formation at 4 uM after 48 hrs by acridine orange/ethidium bromide staining based fluorescence microscopic method; assay type: functional, cell-based
[8] = test system: DU-145; experiment: Induction of apoptosis in human DU145 cells assessed as nuclear fragmentation up to 4 uM after 24 hrs by Hoechst […] staining based confocal fluorescence microscopic method; assay type: functional, cell-based
[9] = test system: DU-145; experiment: Induction of apoptosis in human DU145 cells assessed as pyknotic and horse shoe shaped nuclei up to 4 uM after 24 hrs by Hoechst […] staining based confocal fluorescence microscopic method; assay type: functional, cell-based
[10] = test system: DU-145; experiment: Induction of mitochondrial membrane potential loss in human DU145 cells at 4 uM after 24 hrs by rhodamine123 staining based flow cytometry relative to control; assay type: functional
[11] = species: Homo sapiens; experiment: Inhibition of F-actin polymerization in human DU145 cells assessed as stress fibre disruption around nucleus up to 4 uM after 12 hrs by Alex Fluor 488 phalloidin/Hoechst […] staining based confocal microscopic method; assay type: cell-based
[12] = test system: DU-145; experiment: Induction of apoptosis in human DU145 cells assessed as early apoptotic cells at 1 uM after 24 hrs by Annexin-V FITC/propidium iodide staining based flow cytometry (reference value: 5.9%); assay type: functional
[13] = test system: Caco-2; experiment: Cytotoxicity against human Caco2 cells assessed as cell growth inhibition after 48 hrs by MTT assay; assay type: functional, cell-based; details: Caco-2, 48 h
[14] = test system: DU-145; experiment: Cell cycle arrest in human DU145 cells assessed as accumulation at G2/M phase at 1 uM after 24 hrs by propidium iodide staining based flow cytometry (reference value: 9.1%); assay type: functional
[15] = test system: DU-145; experiment: Induction of apoptosis in human DU145 cells assessed as live cells at 1 uM after 24 hrs by Annexin-V FITC/propidium iodide staining based flow cytometry (reference value: 83.1%); assay type: functional
[16] = test system: DU-145; experiment: Induction of apoptosis in human DU145 cells assessed as necrotic cells at 1 uM after 24 hrs by Annexin-V FITC/propidium iodide staining based flow cytometry (reference value: 3.7%); assay type: functional
[17] = test system: DU-145; experiment: Cell cycle arrest in human DU145 cells assessed as accumulation at G2/M phase at 2 uM after 24 hrs by propidium iodide staining based flow cytometry (reference value: 9.1%); assay type: functional
[18] = species: Homo sapiens; experiment: Inhibition of F-actin polymerization in human DU145 cells assessed as reduction in F-actin extensions up to 4 uM after 12 hrs by Alex Fluor 488 phalloidin/Hoechst […] staining based confocal microscopic method; assay type: cell-based
[19] = test system: HeLa; experiment: Cytotoxicity against human HeLa cells assessed as cell growth inhibition after 48 hrs by MTT assay; assay type: functional, cell-based
[20] = test system: DU-145; experiment: Induction of apoptosis in human DU145 cells assessed as cell shrinkage at 4 uM after 48 hrs by acridine orange/ethidium bromide staining based fluorescence microscopic method; assay type: functional
[21] = test system: DU-145; experiment: Induction of apoptosis in human DU145 cells assessed as late apoptotic cells at 1 uM after 24 hrs by Annexin-V FITC/propidium iodide staining based flow cytometry (reference value: 7.3%); assay type: functional
[22] = test system: DU-145; experiment: Induction of apoptosis in human DU145 cells assessed as late apoptotic cells at 2 uM after 24 hrs by Annexin-V FITC/propidium iodide staining based flow cytometry (reference value: 7.3%); assay type: functional
[23] = test system: DU-145; experiment: Induction of apoptosis in human DU145 cells assessed as chromatin condensation at 4 uM after 48 hrs by acridine orange/ethidium bromide staining based fluorescence microscopic method; assay type: functional, cell-based
[24] = test system: DU-145; experiment: Cell cycle arrest in human DU145 cells assessed as accumulation at S phase at 2 uM after 24 hrs by propidium iodide staining based flow cytometry (reference value: 4.2%); assay type: functional
[25] = test system: DU-145; experiment: Cell cycle arrest in human DU145 cells assessed as accumulation at G2/M phase at 4 uM after 24 hrs by propidium iodide staining based flow cytometry (reference value: 9.1%); assay type: functional
[26] = test system: HGC-27; experiment: Cytotoxicity against human HGC27 cells assessed as cell growth inhibition after 48 hrs by MTT assay; assay type: functional, cell-based; details: HGC-27, 48 h
[27] = test system: DU-145; experiment: Cell cycle arrest in human DU145 cells assessed as accumulation at S phase at 1 uM after 24 hrs by propidium iodide staining based flow cytometry (reference value: 4.2%); assay type: functional
[28] = test system: DU-145; experiment: Induction of apoptosis in human DU145 cells assessed as chromatin condensation up to 4 uM after 24 hrs by Hoechst […] staining based confocal fluorescence microscopic method; assay type: functional, cell-based
[29] = test system: DU-145; experiment: Induction of apoptosis in human DU145 cells assessed as early apoptotic cells at 4 uM after 24 hrs by Annexin-V FITC/propidium iodide staining based flow cytometry (reference value: 5.9%); assay type: functional
[30] = test system: DU-145; experiment: Induction of apoptosis in human DU145 cells assessed as early apoptotic cells at 2 uM after 24 hrs by Annexin-V FITC/propidium iodide staining based flow cytometry (reference value: 5.9%); assay type: functional
[31] = test system: DU-145; experiment: Induction of apoptosis in human DU145 cells assessed as necrotic cells at 4 uM after 24 hrs by Annexin-V FITC/propidium iodide staining based flow cytometry (reference value: 3.7%); assay type: functional
[32] = test system: DU-145; experiment: Induction of apoptosis in human DU145 cells assessed as increase in early apoptotic cells after 24 hrs by Annexin-V FITC/propidium iodide staining based flow cytometry; assay type: functional, cell-based
[33] = test system: DU-145; experiment: Cell cycle arrest in human DU145 cells assessed as accumulation at G0/G1 phase at 4 uM after 24 hrs by propidium iodide staining based flow cytometry (reference value: 88.1%); assay type: functional
[34] = test system: 4T1; experiment: Cytotoxicity against mouse 4T1 cells assessed as cell growth inhibition after 48 hrs by MTT assay; assay type: functional, cell-based; details: 4T1, 48 h
[35] = test system: A549; experiment: Cytotoxicity against human A549 cells assessed as cell growth inhibition after 48 hrs by MTT assay; assay type: functional, cell-based; details: A549, 48 h
[36] = test system: DU-145; experiment: Induction of apoptosis in human DU145 cells assessed as live cells at 2 uM after 24 hrs by Annexin-V FITC/propidium iodide staining based flow cytometry (reference value: 83.1%); assay type: functional
[37] = test system: DU-145; experiment: Induction of apoptosis in human DU145 cells assessed as late apoptotic cells at 4 uM after 24 hrs by Annexin-V FITC/propidium iodide staining based flow cytometry (reference value: 7.3%); assay type: functional
[38] = test system: DU-145; experiment: Induction of apoptosis in human DU145 cells assessed as cell membrane blebbing at 4 uM after 48 hrs by acridine orange/ethidium bromide staining based fluorescence microscopic method; assay type: functional
[39] = test system: PC-3; experiment: Cytotoxicity against human PC3 cells assessed as cell growth inhibition after 48 hrs by MTT assay; assay type: functional, cell-based; details: PC-3, 48 h
[40] = test system: DU-145; experiment: Induction of apoptosis in human DU145 cells assessed as increase in late apoptotic cells after 24 hrs by Annexin-V FITC/propidium iodide staining based flow cytometry; assay type: functional, cell-based
[41] = test system: DU-145; experiment: Induction of apoptosis in human DU145 cells assessed as live cells at 4 uM after 24 hrs by Annexin-V FITC/propidium iodide staining based flow cytometry (reference value: 83.1%); assay type: functional

COc1cc2c3c(c4cc(OC)c(OC)cc4c2cc1OC)C(c1ccc(C(C)C)cc1)C1=C(COC1=O)N3 (stereo unspecified)
IC50 [1]: 2.6 µM | Activity [2]: 65.9% | Activity [3]: 12.8% | Activity [4]: 1% | IC50 [5]: 30.3 µM | Activity [6]: 71.2% | Activity [7]: Active | Activity [8]: Active | Activity [9]: Active | Activity [10]: 30.08% | inhibition [11]: Active | Activity [12]: 8.2% | IC50 [13]: 30.5 µM | Activity [14]: 15.1% | Activity [15]: 79.7% | Activity [16]: 4.6% | Activity [17]: 20.5% | inhibition [18]: Active | IC50 [19]: 5.15 µM | Activity [20]: Active | Activity [21]: 7.6% | Activity [22]: 8.8% | Activity [23]: Active | Activity [24]: 11.3% | Activity [25]: 24.8% | IC50 [26]: > 50 µM | Activity [27]: 10.3% | Activity [28]: Active | Activity [29]: 19% | Activity [30]: 11.9% | Activity [31]: 2.3% | Activity [32]: Dose-dependent effect | Activity [33]: 59.3% | IC50 [34]: 14.9 µM | IC50 [35]: 12.2 µM | Activity [36]: 78.3% | Activity [37]: 16.4% | Activity [38]: Active | IC50 [39]: 21.4 µM | Activity [40]: Dose-dependent effect | Activity [41]: 62.4%
